Laboratory results as given in patent US20230295197A1, “STAT5 and STAT6 Degraders and Uses Thereof” (REGENTS OF THE UNIVERSITY OF MICHICAN, priority 2022, published 2023).
*1 amine or outer side, *2 acyl side, *3 side chain or, on linkers, in order; H or OH if unused. Where a SMILES comes first, the peptide text is derived from it. [ ]: non-standard residue; d: D form. The star is where a group is joined. Benzothienyl2CO(5-CF2PO3H2) = O=C(c1cc2cc(C(F)(F)P(=O)(O)O)ccc2s1)*; βAla(N-(4-Br-phenyl)) = O=C(CCN(c1ccc(Br)cc1)[*:1])[*:2]; NHBn(4-(4-Me-thiazol-5-yl)) = Cc1ncsc1-c1ccc(CN*)cc1; Hyp = O=C(O)[C@@H]1C[C@@H](O)CN1; Tle = CC(C)(C)[C@H](N)C(=O)O; Ava = NCCCCC(=O)O

target: T1, STAT6 (Homo sapiens, UniProt P42226); test: Immunoblotting (Western blot) analysis of STAT6 degradation efficiency of degraders in treated cells; format: cell-based; details: L1236 cells, read-out: DC50 S6 L1236
T1 construct: endogenous in cells; host or cells: MOLM-16, KU-812, SKNO1, MB231, L1236
T1 sequence (P42226 1-847): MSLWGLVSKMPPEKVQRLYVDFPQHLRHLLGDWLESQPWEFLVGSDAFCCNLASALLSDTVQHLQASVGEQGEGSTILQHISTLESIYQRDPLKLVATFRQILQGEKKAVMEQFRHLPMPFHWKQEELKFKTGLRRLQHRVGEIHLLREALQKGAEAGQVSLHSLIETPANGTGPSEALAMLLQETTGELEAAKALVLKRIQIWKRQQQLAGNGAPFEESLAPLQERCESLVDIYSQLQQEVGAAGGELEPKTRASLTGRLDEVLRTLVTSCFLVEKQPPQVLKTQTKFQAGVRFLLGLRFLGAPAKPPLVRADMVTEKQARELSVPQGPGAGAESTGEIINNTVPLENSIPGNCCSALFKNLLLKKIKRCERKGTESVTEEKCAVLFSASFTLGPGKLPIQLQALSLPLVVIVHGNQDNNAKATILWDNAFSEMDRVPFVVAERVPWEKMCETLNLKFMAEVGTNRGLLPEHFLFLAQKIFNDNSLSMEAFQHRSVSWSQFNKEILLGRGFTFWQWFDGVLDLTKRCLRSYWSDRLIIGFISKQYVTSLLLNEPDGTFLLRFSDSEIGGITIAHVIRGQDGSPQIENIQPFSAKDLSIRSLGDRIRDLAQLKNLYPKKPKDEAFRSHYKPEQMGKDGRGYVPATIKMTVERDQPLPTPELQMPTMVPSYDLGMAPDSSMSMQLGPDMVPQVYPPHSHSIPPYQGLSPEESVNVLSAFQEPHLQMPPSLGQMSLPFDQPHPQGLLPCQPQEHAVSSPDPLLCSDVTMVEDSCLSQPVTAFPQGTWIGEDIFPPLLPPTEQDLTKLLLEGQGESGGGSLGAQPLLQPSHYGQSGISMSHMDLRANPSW
In short: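 Degradation read by quantitative near-infrared Western blot: equal protein loads (20-40 μg) from compound-treated versus untreated cells, probed overnight at 4° C. for STAT5 or STAT6 with GAPDH reference. Compound concentrations and exposure times as indicated; cells grown in medium with 10% FBS at 37° C.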

Which DC50 does the source give for Cc1ncsc1-c1ccc([C@H](C)NC(=O)[C@@H]2C[C@@H](O)CN2C(=O)[C@@H](NC(=O)CNC(=O)CC(=O)N2CCN(C(=O)[C@@H](NC(=O)c3cc4cc(C(F)(F)P(=O)(O)O)ccc4s3)C(C)(C)C)[C@H](C(=O)N3CCC[C@H](c4ccccc4)C3)C2)C(C)(C)C)cc1 [Compound 452, (difluoro(2-(((S)-1-((S)-4-(3-((2-(((S)-1-((2S,4R)-4-hydroxy-2-(((S)-1-(4-(4-methylthiazol-5-yl)phenyl)ethyl)carbamoyl)pyrrolidin-1-yl)-3,3-dimethyl-1-oxobutan-2-yl)amino)-2-oxoethyl)amino)-3-oxopropanoyl)-2-((R)-3-phenylpiperidine-1-carbonyl)piperazin-1-yl)-3,3-dimethyl-1-oxobutan-2-yl)carbamoyl)benzo[b]thiophen-5-yl)methyl)phosphonic acid] here?
Its DC50 is > 10 µM.

same assay, conditions: MOLM-16 cells, class symbols, read-out: DC50 S6 MOLM-16

Cc1ncsc1-c1ccc([C@H](C)NC(=O)[C@@H]2C[C@@H](O)CN2C(=O)[C@@H](NC(=O)CNC(=O)CC(=O)N2CCN(C(=O)[C@@H](NC(=O)c3cc4cc(C(F)(F)P(=O)(O)O)ccc4s3)C(C)(C)C)[C@H](C(=O)N3CCC[C@H](c4ccccc4)C3)C2)C(C)(C)C)cc1 [Compound 452, (difluoro(2-(((S)-1-((S)-4-(3-((2-(((S)-1-((2S,4R)-4-hydroxy-2-(((S)-1-(4-(4-methylthiazol-5-yl)phenyl)ethyl)carbamoyl)pyrrolidin-1-yl)-3,3-dimethyl-1-oxobutan-2-yl)amino)-2-oxoethyl)amino)-3-oxopropanoyl)-2-((R)-3-phenylpiperidine-1-carbonyl)piperazin-1-yl)-3,3-dimethyl-1-oxobutan-2-yl)carbamoyl)benzo[b]thiophen-5-yl)methyl)phosphonic acid] was tested. Which DC50 did it give?
The DC50 was > 10 µM.

Which DC50 does the source give for CC(C)(C)[C@H](NC(=O)c1cc2cc(C(F)(F)P(=O)(O)O)ccc2s1)C(=O)N1C[C@@H](OCC(=O)NCCCC#Cc2cccc3c2C(=O)N(C2CCC(=O)NC2=O)C3=O)C[C@H]1C(=O)N1CCO[C@H](c2ccccc2)C1 (stereo partly drawn) [Compound 483, ((2-(((2S)-1-((2S,4S)-4-(2-((5-(2-(2,6-dioxopiperidin-3-yl)-1,3-dioxoisoindolin-4-yl)pent-4-yn-1-yl)amino)-2-oxoethoxy)-2-((R)-2-phenylmorpholine-4-carbonyl)pyrrolidin-1-yl)-3,3-dimethyl-1-oxobutan-2-yl)carbamoyl)benzo[b]thiophen-5-yl)difluoromethyl)phosphonic acid] here?
Its DC50 is 1 to 10 µM.

For CC(C)(C)[C@H](NC(=O)c1cc2cc(C(F)(F)P(=O)(O)O)ccc2s1)C(=O)N1Cc2cc(OCC(=O)NCCC#Cc3cccc4c3C(=O)N(C3CCC(=O)NC3=O)C4=O)ccc2C[C@H]1C(=O)N1CCO[C@H](c2ccccc2)C1 (stereo partly drawn) [Compound 537, ((2-(((2S)-1-((3S)-7-(2-((4-(2-(2,6-dioxopiperidin-3-yl)-1,3-dioxoisoindolin-4-yl)but-3-yn-1-yl)amino)-2-oxoethoxy)-3-((R)-2-phenylmorpholine-4-carbonyl)-3,4-dihydroisoquinolin-2(1H)-yl)-3,3-dimethyl-1-oxobutan-2-yl)carbamoyl)benzo[b]thiophen-5-yl)difluoromethyl)phosphonic acid], which DC50 is on record?
Its DC50 is > 10 µM.

For CC(C)(C)[C@H](NC(=O)c1cc2cc(C(F)(F)P(=O)(O)O)ccc2s1)C(=O)N1Cc2cc(OCC(=O)NCC#Cc3cccc4c3C(=O)N(C3CCC(=O)NC3=O)C4=O)ccc2C[C@H]1C(=O)N1CCO[C@H](c2ccccc2)C1 (stereo partly drawn) [Compound 535, ((2-(((2S)-1-((3S)-7-(2-((3-(2-(2,6-dioxopiperidin-3-yl)-1,3-dioxoisoindolin-4-yl)prop-2-yn-1-yl)amino)-2-oxoethoxy)-3-((R)-2-phenylmorpholine-4-carbonyl)-3,4-dihydroisoquinolin-2(1H)-yl)-3,3-dimethyl-1-oxobutan-2-yl)carbamoyl)benzo[b]thiophen-5-yl)difluoromethyl)phosphonic acid], which DC50 is on record?
The DC50 was 0.1 to 1 µM.

With CC(C)(C)[C@H](NC(=O)c1cc2cc(C(F)(F)P(=O)(O)O)ccc2s1)C(=O)N1CCN(C(=O)CC(=O)NCCC#Cc2cccc3c2C(=O)N(C2CCC(=O)NC2=O)C3=O)C[C@H]1C(=O)N1CCC[C@H](c2ccccc2)C1 (stereo partly drawn) [Compound 523, ((2-(((2S)-1-((2S)-4-(3-((4-(2-(2,6-dioxopiperidin-3-yl)-1,3-dioxoisoindolin-4-yl)but-3-yn-1-yl)amino)-3-oxopropanoyl)-2-((R)-3-phenylpiperidine-1-carbonyl)piperazin-1-yl)-3,3-dimethyl-1-oxobutan-2-yl)carbamoyl)benzo[b]thiophen-5-yl)difluoromethyl)phosphonic acid] as the molecule, how does the DC50 read?
Its DC50 is > 10 µM.

Which DC50 does the source give for Cc1ncsc1-c1ccc([C@H](C)NC(=O)[C@@H]2C[C@@H](O)CN2C(=O)[C@@H](NC(=O)CNC(=O)COc2ccc3c(c2)CN(C(=O)[C@@H](NC(=O)c2cc4cc(C(F)(F)P(=O)(O)O)ccc4s2)C(C)(C)C)[C@H](C(=O)N2CCC[C@H](c4ccccc4)C2)C3)C(C)(C)C)cc1 [Compound 470, (difluoro(2-(((S)-1-((S)-7-(2-((2-(((S)-1-((2S,4R)-4-hydroxy-2-(((S)-1-(4-(4-methylthiazol-5-yl)phenyl)ethyl)carbamoyl)pyrrolidin-1-yl)-3,3-dimethyl-1-oxobutan-2-yl)amino)-2-oxoethyl)amino)-2-oxoethoxy)-3-((R)-3-phenylpiperidine-1-carbonyl)-3,4-dihydroisoquinolin-2(1H)-yl)-3,3-dimethyl-1-oxobutan-2-yl)carbamoyl)benzo[b]thiophen-5-yl)methyl)phosphonic acid] here?
Its DC50 is > 10 µM.

Which DC50 does the source give for CC(C)(C)[C@H](NC(=O)c1cc2cc(C(F)(F)P(=O)(O)O)ccc2s1)C(=O)N1C[C@@H](OCC(=O)NCCCCC#Cc2ccc3c(c2)C(=O)N(C2CCC(=O)NC2=O)C3=O)C[C@H]1C(=O)N1CCO[C@H](c2ccccc2)C1 (stereo partly drawn) [Compound 486, ((2-(((2S)-1-((2S,4S)-4-(2-((6-(2-(2,6-dioxopiperidin-3-yl)-1,3-dioxoisoindolin-5-yl)hex-5-yn-1-yl)amino)-2-oxoethoxy)-2-((R)-2-phenylmorpholine-4-carbonyl)pyrrolidin-1-yl)-3,3-dimethyl-1-oxobutan-2-yl)carbamoyl)benzo[b]thiophen-5-yl)difluoromethyl)phosphonic acid] here?
The DC50 was > 10 µM.

For CC(C)(C)[C@H](NC(=O)c1cc2cc(C(F)(F)P(=O)(O)O)ccc2s1)C(=O)N1CCN(C(=O)CC(=O)NCCCCCCCCCC#Cc2ccc3c(c2)C(=O)N(C2CCC(=O)NC2=O)C3=O)C[C@H]1C(=O)N1CCC[C@H](c2ccccc2)C1 (stereo partly drawn) [Compound 534, ((2-(((2S)-1-((2S)-4-(3-((11-(2-(2,6-dioxopiperidin-3-yl)-1,3-dioxoisoindolin-5-yl)undec-10-yn-1-yl)amino)-3-oxopropanoyl)-2-((R)-3-phenylpiperidine-1-carbonyl)piperazin-1-yl)-3,3-dimethyl-1-oxobutan-2-yl)carbamoyl)benzo[b]thiophen-5-yl)difluoromethyl)phosphonic acid], which DC50 is on record?
Its DC50 is > 10 µM.

Which DC50 does the source give for CC(C)(C)[C@H](NC(=O)c1cc2cc(C(F)(F)P(=O)(O)O)ccc2s1)C(=O)N1Cc2cc(OCC(=O)NCCCCC#Cc3ccc4c(c3)C(=O)N(C3CCC(=O)NC3=O)C4=O)ccc2C[C@H]1C(=O)N1CCO[C@H](c2ccccc2)C1 (stereo partly drawn) [Compound 542, ((2-(((2S)-1-((3S)-7-(2-((6-(2-(2,6-dioxopiperidin-3-yl)-1,3-dioxoisoindolin-5-yl)hex-5-yn-1-yl)amino)-2-oxoethoxy)-3-((R)-2-phenylmorpholine-4-carbonyl)-3,4-dihydroisoquinolin-2(1H)-yl)-3,3-dimethyl-1-oxobutan-2-yl)carbamoyl)benzo[b]thiophen-5-yl)difluoromethyl)phosphonic acid] here?
The DC50 was > 10 µM.

same assay, conditions: read-out: DC50 S6 MB231, MB231 cells

How did the DC50 turn out when Cc1ncsc1-c1ccc(CNC(=O)[C@@H]2C[C@@H](O)CN2C(=O)[C@@H](NC(=O)CCCCNC(=O)CCN(C(=O)[C@@H]2CCCN2C(=O)[C@@H](NC(=O)c2cc3cc(C(F)(F)P(=O)(O)O)ccc3s2)C(C)(C)C)c2ccc(Br)cc2)C(C)(C)C)cc1 [Compound 401] ({Benzothienyl2CO(5-CF2PO3H2)}-[Tle]P[βAla(N-(4-Br-phenyl))][Ava][Tle][Hyp]-{NHBn(4-(4-Me-thiazol-5-yl))}) was run?
The DC50 was > 10 µM.
